Data reported in the NIST ThermoML archive (doi:10.1016/j.fluid.2014.12.029).
± gives the expanded uncertainty stated by the source.

Columns and labels:
[1] = Liquid; for mass density: 298.15 K, 101.33 kPa, Pycnometric method; for Normal boiling temperature: Ebulliometric method (Recirculating still)
[2] = Boiling temperature at pressure P; settings: Liquid, Ebulliometric method (Recirculating still)
[3] = refractive index (Na D-line) (dimensionless); settings: 298.15 K; 101.33 kPa; Liquid; Standard Abbe refractometry

Row | mass density [1] | Normal boiling temperature [1] | Boiling temperature at pressure P ([2]; 8.01 kPa) | Boiling temperature at pressure P ([2]; 20 kPa) | Boiling temperature at pressure P ([2]; 30 kPa) | Boiling temperature at pressure P ([2]; 34.84 kPa) | Boiling temperature at pressure P ([2]; 39.85 kPa) | Boiling temperature at pressure P ([2]; 50 kPa) | Boiling temperature at pressure P ([2]; 55.02 kPa) | refractive index [3] | Structure (SMILES)
1 | 837.1 ± 0.8 kg/m3 | 119.44 ± 0.2 °C | 49.24 ± 0.21 °C | 70.88 ± 0.2 °C | 81.73 ± 0.2 °C | 85.81 ± 0.2 °C | 89.66 ± 0.2 °C | 96.50 ± 0.2 °C | 99.39 ± 0.2 °C | 1.387 ± 0.0007 | CCCCOCOC [1-(methoxymethoxy)-butane]
2 | 805.2 ± 0.7 kg/m3 |  |  |  |  |  |  |  |  | 1.3967 ± 0.0007 | CCCCO [butan-1-ol]
3 | 799.3 ± 0.7 kg/m3 | 97.16 ± 0.2 °C |  |  |  |  |  |  |  | 1.3833 ± 0.0007 | CCCO [propan-1-ol]
